From PubChem BioAssay AID743298 (Broad Institute, 2014)
“And” between values parts separate entries of the source, which are not always exact repeats. Identical values can stand only once. The source made the active and inactive calls.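 The calls were made as follows: active = fitted AC50 at or below twice the top valid dose for that sample, signal falling; inconclusive = flat curve at 30 to 70 percent inhibition, or bad fit; inactive = the rest.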

Test system: C. neoformans growth, alamar blue, 24 h
Experiment: cell lysis of Cryptococcus neoformans, alamar blue – dry powder, set 3, mechanism study for C. neoformans antifungal project, dose response (AID 743298)
Settings: not given

| SMILES | AC50 |
| --- | --- |
| Cc1ccc(OCCn2cnc3ccccc32)c(C(C)C)c1 | > 70 µM (inactive) |
| CC(C)c1ccc(OCCn2c(=S)[nH]c3ccccc32)cc1 | 5.77 µM |
| Cc1ccc(C(C)C)c(OCCn2c(=S)[nH]c3cccc(Cl)c32)c1 | 9.67 µM |
| Cc1cccc(OCCn2c(=S)[nH]c3cc(F)ccc32)c1 | 12.1 µM and 11.7 µM |
| S=c1[nH]c2cccc(Cl)c2n1CCOc1ccccc1 | 6.34 µM and 6.02 µM |
| Cc1ccc(OCCn2c(=S)[nH]c3ccccc32)cc1 | 5.63 µM |
| Fc1ccc2[nH]c(=S)n(CCOc3ccccc3)c2c1 | 25.2 µM |
| Cc1ccc(OCCn2c(SCCO)nc3ccccc32)c(C(C)C)c1 | 26 µM |
| CC(C)(C)c1ccccc1OCCn1c(=S)[nH]c2ccccc21 | 11.2 µM |
| Cc1ccc(C(C)C)c(OCCn2c(=S)[nH]c3cccc(F)c32)c1 | 13.9 µM |
| Fc1cccc(OCCn2c(=S)[nH]c3ccccc32)c1 | 25.6 µM |
| COc1cccc(OCCn2c(=S)[nH]c3ccccc32)c1 | 28.8 µM |
| Fc1ccc2c(c1)[nH]c(=S)n2CCOc1ccccc1 | 27.5 µM and 26.8 µM |
| Cc1cccc2[nH]c(=S)n(CCOc3ccccc3)c12 | 15.1 µM |
| O=c1[nH]c2ccccc2n1CCOc1ccccc1 | 34 µM |
| CC(C)c1ccccc1OCCn1c(=S)[nH]c2ccccc21 | 20.1 µM |

| SMILES | AC50 |
| --- | --- |
| Cc1ccc(OCCn2cnc3ccccc32)cc1 | 12 µM |
| CC(C)(C)c1ccc(OCCn2cnc3ccccc32)cc1 | 17.5 µM |
| CC(C)(C)c1ccc(OCCn2c(=S)[nH]c3ccccc32)cc1 | 7.11 µM |
| Cc1ccc2c(c1)[nH]c(=S)n2CCOc1ccccc1 | 12.2 µM and 12.4 µM |
| S=c1[nH]c2ccccc2n1CCOc1ccc(Cl)cc1 | 6.01 µM |
| Cc1ccc(OCCn2c(C)nc3ccccc32)cc1 | 21.9 µM |
| Cc1ccc(OCCn2c(=S)[nH]c3ccccc32)c(C(C)C)c1 | 12.3 µM and 10.4 µM |
| COc1ccc(OCCn2c(=S)[nH]c3ccccc32)cc1 | 30.3 µM |
| S=c1[nH]c2ccccc2n1CCOc1ccccc1 | 24.4 µM |
| Cc1cccc(OCCn2c(=S)[nH]c3ccccc32)c1 | 21.1 µM |
| Cc1ccccc1OCCn1c(=S)[nH]c2ccccc21 | > 70 µM (inactive) |
| S=c1[nH]c2ccccc2n1CCOc1ccccc1Cl | 34 µM |
| Fc1cccc2c1[nH]c(=S)n2CCOc1ccccc1 | 20 µM and 22.2 µM |
| CCOc1ccc(OCCn2c(=S)[nH]c3ccccc32)cc1 | 12.3 µM |
| Cc1ccc(C(C)C)c(OCCn2c(=S)[nH]c3ccccc32)c1 | 9.65 µM and 9.22 µM |
| Fc1ccccc1OCCn1c(=S)[nH]c2ccccc21 | 23 µM |

Test system: not listed separately
Experiment: as above
Settings: C. neoformans growth, alamar blue, 24 h; at 35 µM (top of the series)

| SMILES | activity change, negative = inhibition |
| --- | --- |
| S=c1[nH]c2cc(Cl)ccc2n1CCOc1ccccc1 | 39.6% (inactive) |
| Cc1ccc(C(C)C)c(OCCn2c(=S)[nH]c3ccc(Cl)cc32)c1 | 30.7% (inactive) |
| Cc1ccc(C(C)C)c(OCCn2c(=S)[nH]c3cccc(C)c32)c1 | 35.3% (inactive) |
| Cc1ccc(C(C)C)c(OCCn2c(=S)[nH]c3c(F)cccc32)c1 | 16% (inactive) |
| Cc1ccc(C(C)C)c(OCCn2c(CO)nc3ccccc32)c1 | 8.72% (inactive) |
| Cc1ccc(C(C)C)c(OCCn2c(=S)[nH]c3c(C)cccc32)c1 | 59.5% (inactive) |
| c1ccc(OCCn2cnc3ccccc32)cc1 | 30.3% (inactive) |
| Cc1ccc(OCCn2c(=S)[nH]c3ccccc32)c(C)c1 | 12.9% (inactive) |
| Cc1ccc(C(C)C)c(OCCn2c(=S)[nH]c3cc(F)ccc32)c1 | 55% (inactive) |
| Cc1ccc(C)c(OCCn2c(=S)[nH]c3ccccc32)c1 | 26.6% (inactive) |
| Cc1cccc(OCCn2c(=S)[nH]c3ccccc32)c1C | 51.8% (inactive) |
| COCc1nc2ccccc2n1CCOc1ccc(C(C)(C)C)cc1 | 5.49% (inactive) |
| CC(C)c1ccccc1NCCn1c(=S)[nH]c2ccccc21 | 34.7% (inactive) |
| Cc1cccc(OCCn2c(=S)[nH]c3ccc(C(F)(F)F)cc32)c1 | 39.4% (inactive) |
| Cc1cccc(OCCn2c(=S)[nH]c3cc(C(F)(F)F)ccc32)c1 | 19% (inactive) |
| CSc1nc2ccccc2n1CCOc1cc(C)ccc1C(C)C | -25.9% (inactive) |
| Cc1cccc(OCCn2c(=S)[nH]c3c(F)cccc32)c1 | -5.91% (inactive) and -16.2% (inactive) |
| COc1ccccc1OCCn1c(=S)[nH]c2ccccc21 | -19.4% (inactive) |
| Cc1ccc(C(C)C)c(OCCn2c(=S)[nH]c3c(Cl)cccc32)c1 | -22.6% (inactive) |
| Cc1ccc(C(C)C)c(OCCn2c(=S)[nH]c3ccc(F)cc32)c1 | 44.9% (inactive) |
